Reference: ChEMBL document CHEMBL4765295, “Synthesis, pharmacological profile and 2D-QSAR studies of curcumin-amino acid conjugates as potential drug candidates” (Eur J Med Chem, 2020)
Values joined by “and” are separate entries in the source; they are usually repeats but may differ in a detail not shown here. Identical values can stand only once.

Assays:
Mus musculus [1] = assay: Analgesic activity in albino mouse assessed as forepaw licking/jumping latency time at 10 mg/kg, ip measured after 120 mins by hot plate test (reference value: 2.62 +/- 0.06 sec); format: functional; details: 2 h
Candida albicans = assay: Antifungal activity against Candida albicans incubated for 18 to 24 hrs by CLSI method; format: functional; details: time 18-24 hrs
[2] = Ulcerogenic activity in fasted albino mouse assessed as average severity of ulcers in gastric mucosa at 10 mg/kg, po for 3 days (reference value: 0); format: toxicity, organism-based; details: in vivo, 72 h, time 3 day
Pseudomonas aeruginosa = assay: Antibacterial activity against Pseudomonas aeruginosa ATCC 27853 incubated for 18 hrs by agar dilution assay; format: functional
Rattus norvegicus [3] = assay: Anti-inflammatory activity in Wistar rat assessed as inhibition of carrageenan-induced paw edema at 10 mg/kg, ip pretreated for 1 hr followed by carrageenan challenge and measured after 3 hr relative to control (reference value: 0.00 +/-0.1 %); format: functional; details: time 4 hrs
Mus musculus [4] = assay: Analgesic activity in albino mouse assessed protection against acetic acid-induced abdominal writhing at 10 mg/kg, ip pretreated for 1 hr followed by acetic acid challenge and measured starting 5 mins post acetic acid challenge for 10 mins relative to control (reference value: 0 %); format: functional; details: time 75 min, 1.25 h
Mus musculus [5] = assay: Analgesic activity in albino mouse assessed protection against acetic acid-induced abdominal writhing at 10 mg/kg, ip pretreated for 1 hr followed by acetic acid challenge and measured starting 5 mins post acetic acid challenge for 10 mins relative to indomethacin; format: functional; details: time 75 min, 1.25 h
Rattus norvegicus [6] = assay: Anti-inflammatory activity in Wistar rat assessed as inhibition of carrageenan-induced paw edema at 10 mg/kg, ip pretreated for 1 hr followed by carrageenan challenge and measured after 2 hr relative to control (reference value: 0.00 +/-0.03 %); format: functional; details: time 3 hrs
Rattus norvegicus [7] = assay: Anti-inflammatory activity in Wistar rat assessed as inhibition of carrageenan-induced paw edema at 10 mg/kg, ip pretreated for 1 hr followed by carrageenan challenge and measured after 24 hr relative to control (reference value: 0.00 +/-0.3 %); format: functional; details: time 25 hrs
Mus musculus [8] = assay: Analgesic activity in albino mouse assessed as protection at 10 mg/kg, ip measured after 120 mins by hot plate test (reference value: 0 %); format: functional; details: 2 h
Rattus norvegicus [9] = assay: Antiinflammatory activity in Wistar rat model of carrageenan-induced paw edema assessed as reduction in thickness of paw edema at 10 mg/kg, ip pretreated for 1 hr followed by carrageenan challenge and measured after 2 hrs (reference value: 2.06 +/-0.09 mm); format: functional; details: time 3 hrs
Rattus norvegicus [10] = assay: Anti-inflammatory activity in Wistar rat assessed as inhibition of carrageenan-induced paw edema at 10 mg/kg, ip pretreated for 1 hr followed by carrageenan challenge and measured after 4 hr relative to control (reference value: 0.00 +/-0.4 %); format: functional; details: time 5 hrs
PC-3 = assay: Antiproliferative activity against human PC3 cells assessed as inhibition of cell growth after 72 hrs by MTT assay; format: functional, cell-based; details: PC-3, 72 h
Splenocyte [11] = assay: Immunomodulatory activity in Swiss albino mouse splenocytes assessed as cell viability at 10 uM by measuring stimulation index incubated for 72 hrs in presence of mitogenic stimulus phytohaemagglutinin by MTT assay (reference value: 1.00 +/- 0.24); format: functional
Mus musculus [12] = assay: Analgesic activity in albino mouse assessed as forepaw licking/jumping latency time at 10 mg/kg, ip measured after 90 mins by hot plate test (reference value: 2.72 +/- 0.01 sec); format: functional; details: 1.5 h
Mus musculus [13] = assay: Analgesic activity in albino mouse assessed as forepaw licking/jumping latency time at 10 mg/kg, ip measured after 60 mins by hot plate test (reference value: 3.42 +/- 0.03 sec); format: functional; details: 1 h
Streptococcus pyogenes = assay: Antibacterial activity against Streptococcus pyogenes ATCC 19615 incubated for 18 hrs by agar dilution method; format: functional
[14] = Ulcerogenic activity in fasted albino mouse assessed as average number of ulcers in gastric mucosa at 10 mg/kg, po for 3 days (reference value: 0); format: toxicity, organism-based; details: in vivo, 72 h, time 3 day
Rattus norvegicus [15] = assay: Antiinflammatory activity in Wistar rat model of carrageenan-induced paw edema assessed as reduction in thickness of paw edema at 10 mg/kg, ip pretreated for 1 hr followed by carrageenan challenge and measured after 1 hr (reference value: 2.41 +/-0.05 mm); format: functional; details: time 1 hr after carrageenan
Splenocyte [16] = assay: Immunomodulatory activity in Swiss albino mouse splenocytes assessed as cell viability at 10 uM by measuring inhibition of stimulation index incubated for 72 hrs in presence of mitogenic stimulus phytohaemagglutinin by MTT assay relative to indomethacin; format: functional; details: read-out: Activity
[17] = Toxicity in albino mouse assessed as induction of toxic symptoms at 50 to 100 mg/kg, ip measured after 24 hrs; format: organism-based; details: in vivo, dose 50-100 mg/kg
Rattus norvegicus [18] = assay: Antiinflammatory activity in Wistar rat model of carrageenan-induced paw edema assessed as reduction in thickness of paw edema at 10 mg/kg, ip pretreated for 1 hr followed by carrageenan challenge and measured after 24 hrs (reference value: 0.83 +/-0.08 mm); format: functional; details: time 25 hrs
Mus musculus [19] = assay: Analgesic activity in albino mouse assessed as protection at 10 mg/kg, ip measured after 90 mins by hot plate test (reference value: 0 %); format: functional; details: 1.5 h
[20] = Ulcerogenic activity in fasted albino mouse assessed as incidence of gastric ulceration at 10 mg/kg, po for 3 days (reference value: 0 %); format: toxicity, organism-based; details: in vivo, 72 h, time 3 day
Mus musculus [21] = assay: Analgesic activity in albino mouse assessed as protection at 10 mg/kg, ip measured after 120 mins by hot plate test relative to indomethacin; format: functional; details: 2 h
[22] = Ulcerogenic activity in fasted albino mouse assessed as ulcer index in gastric mucosa at 10 mg/kg, po for 3 days (reference value: 0); format: toxicity, organism-based; details: in vivo, 72 h, time 3 day
Rattus norvegicus [23] = assay: Anti-inflammatory activity in Wistar rat assessed as inhibition of carrageenan-induced paw edema at 10 mg/kg, ip pretreated for 1 hr followed by carrageenan challenge and measured after 1 hr relative to control (reference value: 0.00 +/-0.02 %); format: functional; details: time 2 hrs
Mus musculus [24] = assay: Analgesic activity in albino mouse assessed as protection at 10 mg/kg, ip measured after 30 mins by hot plate test (reference value: 0 %); format: functional; details: 0.5 h
Staphylococcus aureus = assay: Antibacterial activity against Staphylococcus aureus ATCC 25923 incubated for 18 hrs by agar dilution method; format: functional
Peritoneal macrophage [25] = assay: Antiinflammatory activity in […] mouse Peritoneal macrophages assessed as inhibition of LPS-induced NO production at 10 uM preincubated for 1 hr followed by LPS stimulation measured after 24 hrs by Griess method relative to control (reference value: 0.0 %); format: functional; parameters: scale not given: the % may be the effect or the level left; details: time 25 hrs
Rattus norvegicus [26] = assay: Antiinflammatory activity in Wistar rat model of carrageenan-induced paw edema assessed as reduction in thickness of paw edema at 10 mg/kg, ip pretreated for 1 hr followed by carrageenan challenge and measured after 4 hrs (reference value: 1.40 +/-0.10 mm); format: functional; details: time 5 hrs
Salmonella typhimurium = assay: Antibacterial activity against Salmonella typhimurium ATCC 19430 incubated for 18 hrs by agar dilution assay; format: functional, Salmonella enterica subsp. enterica serovar Typhimurium; details: Salmonella enterica
MCF7 = assay: Antiproliferative activity against human MCF7 cells assessed as inhibition of cell growth after 72 hrs by MTT assay; format: functional, cell-based; details: MCF7, 72 h
Mus musculus [27] = assay: Analgesic activity in albino mouse assessed reduction in acetic acid-induced abdominal writhing by measuring writing reflex at 10 mg/kg, ip pretreated for 1 hr followed by acetic acid challenge and measured starting 5 mins post acetic acid challenge for 10 mins (reference value: 42.4 +/- 1.02); format: functional; details: time 75 min, 1.25 h
Peritoneal macrophage [28] = assay: Antiinflammatory activity in […] mouse Peritoneal macrophages assessed as reduction in LPS-induced NO production by measuring reduction in stimulation index at 10 uM preincubated for 1 hr followed by LPS stimulation measured after 24 hrs by Griess method (reference value: 27.31 +/- 2.56 uM); format: functional; details: time 25 hrs
Rattus norvegicus [29] = assay: Antiinflammatory activity in Wistar rat model of carrageenan-induced paw edema assessed as reduction in thickness of paw edema at 10 mg/kg, ip pretreated for 1 hr followed by carrageenan challenge and measured after 3 hrs (reference value: 1.79 +/-0.07 mm); format: functional; details: time 4 hrs
Mus musculus [30] = assay: Analgesic activity in albino mouse assessed as protection at 10 mg/kg, ip measured after 60 mins by hot plate test (reference value: 0 %); format: functional; details: 1 h
Rattus norvegicus [31] = assay: Anti-inflammatory activity in Wistar rat assessed as inhibition of carrageenan-induced paw edema at 10 mg/kg, ip pretreated for 1 hr followed by carrageenan challenge and measured after 4 hr relative to indomethacin; format: functional; details: time 5 hrs
A549 = assay: Antiproliferative activity against human A549 cells assessed as inhibition of cell growth after 72 hrs by MTT assay; format: functional, cell-based; details: A549, 72 h
Mus musculus [32] = assay: Analgesic activity in albino mouse assessed as forepaw licking/jumping latency time at 10 mg/kg, ip measured after 30 mins by hot plate test (reference value: 5.02 +/- 0.09 sec); format: functional; details: 0.5 h

For COc1cc(/C=C/C(=O)/C=C(O)/C=C/c2ccc(OC(=O)CN)c(OC)c2)ccc1OC(=O)CN.Cl.Cl, the Time (Mus musculus [1]) was 3.52 s, the MIC (Candida albicans) was 1 µg/mL and 1.8 µM and the Activity [2] was 0. The MIC (Pseudomonas aeruginosa) was 1 µg/mL and 1.8 µM, the inhibition in vivo at 10 mg/kg (Rattus norvegicus [3]) was 74% and the Activity (Mus musculus [4]) was 65.6%. For the same compound, the Activity (Mus musculus [5]) was 106.5%, the inhibition in vivo at 10 mg/kg (Rattus norvegicus [6]) was 67% and the inhibition in vivo at 10 mg/kg (Rattus norvegicus [7]) was 42%. It also gave an Activity (Mus musculus [8]) of 34.4%, an Activity (Rattus norvegicus [9]) of 0.69 mm and an inhibition in vivo at 10 mg/kg (Rattus norvegicus [10]) of 88%. It also gave an IC50 (PC-3) of 38.7 µM, an Activity_index (Splenocyte [11]) of 0.99 and a Time (Mus musculus [12]) of 3.66 s. The Time (Mus musculus [13]) was 4.28 s, the MIC (Streptococcus pyogenes) was 0.25 µg/mL and 0.45 µM and the Activity [14] was 0. For the same compound, the Activity (Rattus norvegicus [15]) was 0.82 mm, the viability at 10 µM (Splenocyte [16]) was 122% and the Activity [17] was “Non-Toxic”. It also gave an Activity (Rattus norvegicus [18]) of 0.48 mm, an Activity (Mus musculus [19]) of 34.6% and an Activity [20] of 0%. The Activity (Mus musculus [21]) was 81.9%, the UI [22] was 0 and the inhibition in vivo at 10 mg/kg (Rattus norvegicus [23]) was 66%. For the same compound, the Activity (Mus musculus [24]) was 0.4%, the MIC (Staphylococcus aureus) was 0.5 µg/mL and 0.9 µM and the Activity (Peritoneal macrophage [25]) was 49.98%. For the same compound, the Activity (Rattus norvegicus [26]) was 0.17 mm, the MIC (Salmonella typhimurium) was 0.25 µg/mL and 0.45 µM and the IC50 (MCF7) was 9.15 µM. It also gave an Activity (Mus musculus [27]) of 14.6, an Activity (Peritoneal macrophage [28]) of 13.66 µM and an Activity (Rattus norvegicus [29]) of 0.46 mm. For the same compound, the Activity (Mus musculus [30]) was 25.1%, the inhibition in vivo at 10 mg/kg (Rattus norvegicus [31]) was 101% and the IC50 (A549) was 18.9 µM. The Time (Mus musculus [32]) was 5.04 s.
In the case of COc1cc(/C=C/C(=O)/C=C(O)/C=C/c2ccc(OC(=O)[C@H](N)CCSC)c(OC)c2)ccc1OC(=O)[C@H](N)CCSC.Cl.Cl, the Time (Mus musculus [1]) is reported as 3.22 s, the MIC (Candida albicans) is reported as 1 µg/mL and 1.42 µM and the Activity [2] is reported as 0. For the same compound, the MIC (Pseudomonas aeruginosa) was 1 µg/mL and 1.42 µM, the inhibition in vivo at 10 mg/kg (Rattus norvegicus [3]) was 65% and the Activity (Mus musculus [4]) was 53.3%. It also gave an Activity (Mus musculus [5]) of 86.5%, an inhibition in vivo at 10 mg/kg (Rattus norvegicus [6]) of 54% and an inhibition in vivo at 10 mg/kg (Rattus norvegicus [7]) of 35%. The Activity (Mus musculus [8]) was 22.9%, the Activity (Rattus norvegicus [9]) was 0.95 mm and the inhibition in vivo at 10 mg/kg (Rattus norvegicus [10]) was 98%. The IC50 (PC-3) was 41.5 µM, the Activity_index (Splenocyte [11]) was 1.01 and the Time (Mus musculus [12]) was 3.36 s. For the same compound, the Time (Mus musculus [13]) was 4.78 s, the MIC (Streptococcus pyogenes) was 0.25 µg/mL and 0.355 µM and the Activity [14] was 0. For the same compound, the Activity (Rattus norvegicus [15]) was 0.99 mm, the viability at 10 µM (Splenocyte [16]) was 120% and the Activity [17] was “Non-Toxic”. It also gave an Activity (Rattus norvegicus [18]) of 0.54 mm, an Activity (Mus musculus [19]) of 23.5% and an Activity [20] of 0%. It also gave an Activity (Mus musculus [21]) of 54.5%, a UI [22] of 0 and an inhibition in vivo at 10 mg/kg (Rattus norvegicus [23]) of 59%. The Activity (Mus musculus [24]) was 6.8%, the MIC (Staphylococcus aureus) was 0.125 µg/mL and 0.178 µM and the Activity (Peritoneal macrophage [25]) was 49.57%. For the same compound, the Activity (Rattus norvegicus [26]) was 0.03 mm, the MIC (Salmonella typhimurium) was 0.25 µg/mL and 0.355 µM and the IC50 (MCF7) was 10.2 µM. For the same compound, the Activity (Mus musculus [27]) was 19.8, the Activity (Peritoneal macrophage [28]) was 13.77 µM and the Activity (Rattus norvegicus [29]) was 0.62 mm. For the same compound, the Activity (Mus musculus [30]) was 39.8%, the inhibition in vivo at 10 mg/kg (Rattus norvegicus [31]) was 113% and the IC50 (A549) was 20 µM. It also gave a Time (Mus musculus [32]) of 5.36 s.
